Consider 1 molecule from publication PMC6130795 (ACS Omega, 2018).

For the experiment, the target named is T1, CDC25B (Homo sapiens, UniProt P30305).
T1 sequence (P30305 431-538 limits assumed): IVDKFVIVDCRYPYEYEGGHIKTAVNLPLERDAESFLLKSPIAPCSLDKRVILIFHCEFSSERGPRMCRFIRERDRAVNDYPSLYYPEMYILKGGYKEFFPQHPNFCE
As to the kind of experiment: In vitro CDC25B enzyme inhibition assay. The experiment is classed as biochemical.

For the molecule `[Na+].[Na+].[Na+].[O]=[V]([O-])([O-])[O-]` [Na3VO4], the “CDC25B IC50” value was 0.13 ± 0.02 µg/mL.
